Assay results taken from ChEMBL document CHEMBL4837228, “Generation and Biological Evaluation of Degraded Derivatives of the Three E/Z-Isomers of Yaku'amide B” (2021).

Test system: MCF7
Assay: Growth inhibition of human MCF7 cells for 48 hrs by sulforhodamine B assay
Type: functional

| Structure (SMILES) | GI50 [nM] |
| --- | --- |
| CC/C(C)=C(\NC(=O)[C@H](C)NC(=O)/C(NC(=O)CNC(=O)C(C)(C)C(=O)[C@@H](C)CC(C)C)=C(/C)CC)C(=O)N[C@@H](C(=O)N[C@@H](C(=O)N[C@@H](C(=O)N[C@H](C(=O)N/C(C(=O)N[C@H](C)C(=O)N[C@@H](C(=O)N[C@H](C(=O)NC(C(=O)N[C@H](CN(C)C)C(C)C)=C(C)C)C(C)C)C(C)C)=C(/C)CC)C(C)(C)O)C(C)(C)O)[C@@H](C)CC)C(C)C | 47.7 |
| CC/C(C)=C(\NC(=O)[C@@H](NC(=O)[C@H](NC(=O)[C@H](NC(=O)[C@H](NC(=O)/C(NC(=O)[C@H](C)NC(=O)/C(NC(=O)[C@@H](NC(=O)C(C)(C)C(=O)[C@@H](C)CC(C)C)[C@](C)(O)CC)=C(/C)CC)=C(/C)CC)C(C)C)[C@@H](C)CC)C(C)(C)O)C(C)(C)O)C(=O)N[C@H](C)C(=O)N[C@@H](C(=O)N[C@H](C(=O)NC(C(=O)N[C@H](CN(C)C)C(C)C)=C(C)C)C(C)C)C(C)C | 25.4 |
| CC/C(C)=C(\NC(=O)[C@@H](NC(=O)[C@H](NC(=O)[C@H](NC(=O)[C@H](NC(=O)/C(NC(=O)[C@H](C)NC(=O)/C(NC(=O)CNC(=O)C(C)(C)C(=O)[C@@H](C)CC(C)C)=C(/C)CC)=C(/C)CC)C(C)C)[C@@H](C)CC)C(C)(C)O)C(C)(C)O)C(=O)N[C@H](C)C(=O)N[C@@H](C(=O)N[C@H](C(=O)NC(C(=O)N[C@H](CN(C)C)C(C)C)=C(C)C)C(C)C)C(C)C | 28.2 |
| CC/C(C)=C(\NC(=O)[C@H](C)NC(=O)/C(NC(=O)[C@@H](NC(=O)C(C)(C)C(=O)[C@@H](C)CC(C)C)[C@](C)(O)CC)=C(/C)CC)C(=O)N[C@@H](C(=O)N[C@@H](C(=O)N[C@@H](C(=O)N[C@H](C(=O)N/C(C(=O)N[C@H](C)C(=O)N[C@@H](C(=O)N[C@H](C(=O)NC(C(=O)N[C@H](CN(C)C)C(C)C)=C(C)C)C(C)C)C(C)C)=C(/C)CC)C(C)(C)O)C(C)(C)O)[C@@H](C)CC)C(C)C | 24.6 |

Now from value to molecule:

| GI50 [nM] | Structure (SMILES) |
| --- | --- |
| 57.4 | CC/C(C)=C(\NC(=O)[C@H](C)NC(=O)/C(NC(=O)[C@@H](NC(=O)C(C)(C)C(=O)[C@@H](C)CC(C)C)[C@](C)(O)CC)=C(\C)CC)C(=O)N[C@@H](C(=O)N[C@@H](C(=O)N[C@@H](C(=O)N[C@H](C(=O)N/C(C(=O)N[C@H](C)C(=O)N[C@@H](C(=O)N[C@H](C(=O)NC(C(=O)N[C@H](CN(C)C)C(C)C)=C(C)C)C(C)C)C(C)C)=C(\C)CC)C(C)(C)O)C(C)(C)O)[C@@H](C)CC)C(C)C |
| 304 | CC/C(C)=C(\NC(=O)CNC(=O)C(C)(C)C(=O)[C@@H](C)CC(C)C)C(=O)N[C@@H](C)C(=O)N/C(C(=O)N[C@@H](C(=O)N[C@@H](C(=O)N[C@@H](C(=O)NCC(=O)N/C(C(=O)N[C@H](C)C(=O)N[C@@H](C(=O)N[C@H](C(=O)NC(C(=O)N[C@H](CN(C)C)C(C)C)=C(C)C)C(C)C)C(C)C)=C(\C)CC)C(C)(C)O)[C@@H](C)CC)C(C)C)=C(/C)CC |
| 26.8 | CC/C(C)=C(\NC(=O)CNC(=O)C(C)(C)C(=O)[C@@H](C)CC(C)C)C(=O)N[C@@H](C)C(=O)N/C(C(=O)N[C@@H](C(=O)N[C@@H](C(=O)N[C@@H](C(=O)N[C@H](C(=O)N/C(C(=O)N[C@H](C)C(=O)N[C@@H](C(=O)N[C@H](C(=O)NC(C(=O)N[C@H](CN(C)C)C(C)C)=C(C)C)C(C)C)C(C)C)=C(\C)CC)C(C)(C)O)C(C)(C)O)[C@@H](C)CC)C(C)C)=C(/C)CC |
| 18.2 | CC/C(C)=C(\NC(=O)[C@@H](NC(=O)[C@H](NC(=O)[C@H](NC(=O)[C@H](NC(=O)/C(NC(=O)[C@H](C)NC(=O)/C(NC(=O)[C@@H](NC(=O)C(C)(C)C(=O)[C@@H](C)CC(C)C)[C@](C)(O)CC)=C(\C)CC)=C(/C)CC)C(C)C)[C@@H](C)CC)C(C)(C)O)C(C)(C)O)C(=O)N[C@H](C)C(=O)N[C@@H](C(=O)N[C@H](C(=O)NC(C(=O)N[C@H](CN(C)C)C(C)C)=C(C)C)C(C)C)C(C)C |
